Results on 15 compounds are retold here after patent US20230036854A1, “HETEROCYCLIC SPIRO-COMPOUNDS AS AM2 RECEPTOR INHIBITORS” (THE UNIVERSITY OF SHEFFIELD, priority 2018, published 2023).

The target in the assay is T1, AM2 receptor (1321N1 cells transfected with CALCRL+RAMP3) (Homo sapiens, UniProt O60896+Q16602).
T1 construct: host or cells: 1321N1 cells
T1 sequence (Q16602 23-461): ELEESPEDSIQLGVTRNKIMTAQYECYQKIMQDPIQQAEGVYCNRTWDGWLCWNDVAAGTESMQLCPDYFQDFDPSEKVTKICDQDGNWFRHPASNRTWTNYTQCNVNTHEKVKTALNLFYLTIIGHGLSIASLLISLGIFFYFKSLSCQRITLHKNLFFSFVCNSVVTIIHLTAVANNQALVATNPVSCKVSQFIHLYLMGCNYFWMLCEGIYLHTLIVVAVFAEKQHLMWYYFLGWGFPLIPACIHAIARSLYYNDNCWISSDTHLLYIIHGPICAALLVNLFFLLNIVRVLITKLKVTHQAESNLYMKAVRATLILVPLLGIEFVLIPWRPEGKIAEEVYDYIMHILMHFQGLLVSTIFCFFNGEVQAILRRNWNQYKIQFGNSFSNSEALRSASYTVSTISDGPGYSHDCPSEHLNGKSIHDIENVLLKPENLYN
T1 sequence (O60896 24-148): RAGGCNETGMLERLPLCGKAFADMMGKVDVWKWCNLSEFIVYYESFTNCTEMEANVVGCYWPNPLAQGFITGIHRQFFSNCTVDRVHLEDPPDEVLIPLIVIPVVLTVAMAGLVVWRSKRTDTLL
As to the kind of experiment: AM2 receptor inhibition, LANCE cAMP agonist-antagonist competition assay. The class given is cell-based. The conditions noted are these: inhibition of AM induced cAMP activation, read-out: AM2 D2 protocol: pIC50 (converted). An outline of the steps: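 1321N1 cells co-expressing CALCRL and RAMP3 (2500/well) were preincubated with compound for 30 min at room temperature, then stimulated with adrenomedullin at its EC50 dose for 15 min in HBSS/HEPES/BSA buffer, pH 7.4. cAMP was measured by LANCE TR-FRET and normalised to forskolin (100%) and vehicle (0%) controls.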
For the compound `CCC1(C(=O)N(CC(=O)Nc2ccc3c(c2)C[C@@]2(C3)C(=O)Nc3ncccc32)Cc2ccccc2CNC)CCN(C(=O)COCCOCCOCCOCCOCCOCCOC)CC1` [Example 97, (R)-1-(2,5,8,11,14,17,20-Heptaoxadocosan-22-oyl)-4-ethyl-N-(2-((methylamino)methyl)benzyl)-N-(2-oxo-2-((2′-oxo-1,1′,2′,3-tetrahydrospiro[indene-2,3′-pyrrolo[2,3-b]pyridin]-5-yl)amino)ethyl)piperidine-4-carboxamide], the IC50 is 8.71 nM.

For the compound `CCC1(C(=O)N(CC(=O)Nc2ccc3c(c2)C[C@@]2(C3)C(=O)Nc3ncccc32)Cc2ccccc2CNC)CCN(C(=O)C(C)(C)C(F)(F)F)CC1` [Example 98, (R)-4-Ethyl-N-(2-((methylamino)methyl)benzyl)-N-(2-oxo-2-((2′-oxo-1,1′,2′,3-tetrahydrospiro[indene-2,3′-pyrrolo[2,3-b]pyridin]-5-yl)amino)ethyl)-1-(3,3,3-trifluoro-2,2-dimethylpropanoyl)piperidine-4-carboxamide], the IC50 is 61.7 nM.

In the case of `CCC1(C(=O)N(CC(=O)Nc2ccc3c(c2)C[C@@]2(C3)C(=O)Nc3ncccc32)Cc2ccccc2CNC)CCN(C(=O)N(C)C)CC1` [Example 99, (R)-4-Ethyl-N1, N1-dimethyl-N4-(2-((methylamino)methyl)benzyl)-N4-(2-oxo-2-((2′-oxo-1,1′,2′,3-tetrahydrospiro[indene-2,3′-pyrrolo[2,3-b]pyridin]-5-yl)amino)ethyl)piperidine-1,4-dicarboxamide], the IC50 was 1.45 nM.

For `CCC1(C(=O)N(CC(=O)Nc2ccc3c(c2)C[C@@]2(C3)C(=O)Nc3ncccc32)Cc2ccccc2CNC)CCN(C(=O)NC)CC1` [Example 100], the IC50 is 4.07 nM.

With `CCC1(C(=O)N(CC(=O)Nc2ccc3c(c2)C[C@@]2(C3)C(=O)Nc3ncccc32)Cc2ccccc2CNC)CCN(C(=O)NC(C)C)CC1` [Example 101, (R)-4-Ethyl-N1-isopropyl-N4-(2-((methylamino)methyl)benzyl)-N4-(2-oxo-2-((2′-oxo-1,1′,2′,3-tetrahydrospiro[indene-2,3′-pyrrolo[2,3-b]pyridin]-5-yl)amino)ethyl)piperidine-1,4-dicarboxamide], the IC50 is 1.41 nM.

For `CCC1(C(=O)N(CC(=O)Nc2ccc3c(c2)C[C@@]2(C3)C(=O)Nc3ncccc32)Cc2ccccc2CNC)CCN(C(=O)N2CCCC2)CC1` [Example 102, (R)-4-Ethyl-N-(2-((methylamino)methyl)benzyl)-N-(2-oxo-2-((2′-oxo-1,1′,2′,3-tetrahydrospiro[indene-2,3′-pyrrolo[2,3-b]pyridin]-5-yl)amino)ethyl)-1-(pyrrolidine-1-carbonyl)piperidine-4-carboxamide], the IC50 is 6.92 nM.

Take `CCC1(C(=O)N(CC(=O)Nc2ccc3c(c2)C[C@@]2(C3)C(=O)Nc3ncccc32)Cc2ccccc2CNC)CCN(C(=O)N2CCOCC2)CC1` [Example 103, (R)-4-Ethyl-N-(2-((methylamino)methyl)benzyl)-1-(morpholine-4-carbonyl)-N-(2-oxo-2-((2′-oxo-1,1′,2′,3-tetrahydrospiro[indene-2,3′-pyrrolo[2,3-b]pyridin]-5-yl)amino)ethyl)piperidine-4-carboxamide]: the IC50 was 2.19 nM.

In the case of `CCC1(C(=O)N(CC(=O)Nc2ccc3c(c2)C[C@@]2(C3)C(=O)Nc3ncccc32)Cc2ccccc2CNC)CCN(C(=O)N2CCCCC2)CC1` [Example 104, (R)-4-Ethyl-N-(2-((methylamino)methyl)benzyl)-N-(2-oxo-2-((2′-oxo-1,1′,2′,3-tetrahydrospiro[indene-2,3′-pyrrolo[2,3-b]pyridin]-5-yl)amino)ethyl)-1-(piperidine-1-carbonyl) piperidine-4-carboxamide], the IC50 is 107 nM.

Regarding `CCC1(C(=O)N(CC(=O)Nc2ccc3c(c2)C[C@@]2(C3)C(=O)Nc3ncccc32)Cc2ccccc2CNC)CCN(C(=O)NC23CC(C2)C3)CC1` [Example 105], the IC50 was 50.1 nM.

For the compound `CCC1(C(=O)N(CC(=O)Nc2ccc3c(c2)C[C@@]2(C3)C(=O)Nc3ncccc32)Cc2ccccc2CNC)CCN(C(=O)N2CCC2)CC1` [Example 106, (R)-1-(Azetidine-1-carbonyl)-4-ethyl-N-(2-((methylamino)methyl)benzyl)-N-(2-oxo-2-((2′-oxo-1,1′,2′,3-tetrahydrospiro[indene-2,3′-pyrrolo[2,3-b]pyridin]-5-yl)amino)ethyl)piperidine-4-carboxamide], the IC50 was 11.7 nM.

`CCC1(C(=O)N(CC(=O)Nc2ccc3c(c2)C[C@@]2(C3)C(=O)Nc3ncccc32)Cc2ccccc2CNC)CCN(C(=O)N2CCC(F)(F)CC2)CC1` [Example 107, (R)-1-(4,4-Difluoropiperidine-1-carbonyl)-4-ethyl-N-(2-((methylamino)methyl)benzyl)-N-(2-oxo-2-((2′-oxo-1,1′,2′,3-tetrahydrospiro[indene-2,3′-pyrrolo[2,3-b]pyridin]-5-yl)amino)ethyl)piperidine-4-carboxamide]: the IC50 was 57.5 nM.

As for `CCC1(C(=O)N(CC(=O)Nc2ccc3c(c2)C[C@@]2(C3)C(=O)Nc3ncccc32)Cc2ccccc2CNC)CCN(C(=O)N2CCC(F)(F)C2)CC1` [Example 108, (R)-1-(3,3-Difluoropyrrolidine-1-carbonyl)-4-ethyl-N-(2-((methylamino)methyl)benzyl)-N-(2-oxo-2-((2′-oxo-1,1′,2′,3-tetrahydrospiro[indene-2,3′-pyrrolo[2,3-b]pyridin]-5-yl)amino)ethyl)piperidine-4-carboxamide], the IC50 was 24 nM.

As to `CCC1(C(=O)N(CC(=O)Nc2ccc3c(c2)C[C@@]2(C3)C(=O)Nc3ncccc32)Cc2ccccc2CNC)CCN(C(=O)N2CC(F)(F)C2)CC1` [Example 109, (R)-1-(3,3-Difluoroazetidine-1-carbonyl)-4-ethyl-N-(2-((methylamino)methyl)benzyl)-N-(2-oxo-2-((2′-oxo-1,1′,2′,3-tetrahydrospiro[indene-2,3′-pyrrolo[2,3-b]pyridin]-5-yl)amino)ethyl)piperidine-4-carboxamide], the IC50 was 7940 nM.

Take `CCC1(C(=O)N(CC(=O)Nc2ccc3c(c2)C[C@@]2(C3)C(=O)Nc3ncccc32)Cc2ccccc2CNC)CCN(C(=O)N2CCC(C(F)(F)F)CC2)CC1` [Example 110, (R)-4-Ethyl-N-(2-((methylamino)methyl)benzyl)-N-(2-oxo-2-((2′-oxo-1,1′,2′,3-tetrahydrospiro[indene-2,3′-pyrrolo[2,3-b]pyridin]-5-yl)amino)ethyl)-1-(4-(trifluoromethyl)piperidine-1-carbonyl)piperidine-4-carboxamide]: the IC50 is 93.3 nM.

Regarding `CCC1(C(=O)N(CC(=O)Nc2ccc3c(c2)C[C@@]2(C3)C(=O)Nc3ncccc32)Cc2ccccc2CNC)CCN(C(=O)N2CC(F)C2)CC1` [Example 111, (R)-4-Ethyl-1-(3-fluoroazetidine-1-carbonyl)-N-(2-((methylamino)methyl)benzyl)-N-(2-oxo-2-((2′-oxo-1,1′,2′,3-tetrahydrospiro[indene-2,3′-pyrrolo[2,3-b]pyridin]-5-yl)amino)ethyl)piperidine-4-carboxamide], the IC50 was 15.5 nM.
